Earlier results as cited in patent US7771771B2, “Phytosterol compositions” (Raisio Nutrition Ltd., priority 1998, dated 2010).

What was measured:
[1] = in words
serum cholesterol = settings: rats; compared with sitosterol
[2] = tested on: serum cholesterol; aortic atheroma; settings: compared with sitosterol
LDL cholesterol = settings: children with severe familial hypercholesterolemia; compared with sitosterol
[3] = tested on: cholesterol content of mixed micelles; settings: compared with sitosterol

Compound: CC[C@H](CC[C@@H](C)[C@H]1CC[C@H]2[C@@H]3CC[C@H]4C[C@@H](O)CC[C@]4(C)[C@H]3CC[C@]12C)C(C)C [sitostanol]
- absorption [1]: virtually unabsorbed
- hypocholesterolemic activity (serum cholesterol): higher hypocholes-terolemic activity than sitosterol
- formation of aortic atheroma due to cholesterol feeding [2]: depressed the formation of aortic atheroma due to cholesterol feeding more than did sitosterol
- reducing elevated levels of LDL cholesterol (LDL cholesterol): significantly more effective than sitosterol
- lowering of the cholesterol content of mixed micelles [3]: more efficiently than sitosterol
